Key:
nonmelanoma skin cancers = test: oral hormone D3 treatment of nonmelanoma skin cancers; format: in vivo; details: twelve nonmelanoma skin cancers; oral intake, 466 IU daily, between 6 and 8 months
cancer = details: cited from earlier work
[1] = tested on: cancer or major cardiovascular events; details: 2000 IU daily for 5 years, initially healthy adults; cited from earlier work
colorectal cancer = details: 400 IU vitamin D3 with 1000 mg elemental calcium as calcium carbonate; average seven years follow-up; cited from earlier work
normal colonic mucosa = details: six months; vitamin D3 800 IU daily with calcium 2000 mg daily; cited from earlier work
HL-60 = details: cited from earlier work

Row | SMILES | outcome of treated nonmelanoma skin cancers (nonmelanoma skin cancers) | authors' conclusion on cancer prevention (cancer; high dose supplementation prescribed monthly) | participants with primary outcome of cancer (cancer; oral, initial bolus 200,000 IU then 100,000 IU monthly, up to 4 years, without calcium, placebo group 6.4%) | incidence of cancer or major cardiovascular events [1] | interaction between risk of colorectal cancer and supplementation (colorectal cancer) | apoptosis in normal colonic mucosa (molecular markers) (normal colonic mucosa) | cell differentiation (HL-60)
1 | C=C1CC[C@H](O)C/C1=C/C=C1\CCC[C@]2(C)[C@@H]([C@H](C)CCCC(C)C)CC[C@@H]12 [hormone D3, cholecalciferol] | all of them were resolved completely | may no prevent cancer | 6.5% | not reduce the incidence of cancer or major cardiovascular events | no significant interaction | may enhance apoptosis in normal colonic mucosa | 
2 | C=C1/C(=C\C=C2/CCC[C@]3(C)[C@@H]([C@H](C)CCCC(C)(C)O)CC[C@@H]23)C[C@@H](O)C[C@@H]1O [1α,25-dihydroxyvitamin D3] |  |  |  |  |  |  | induces HL-60 differentiation into macrophage-monocyte like cells

— patent US20220339167A1, “HORMONE D (VITAMIN D) AND ITS DERIVATIVES FOR THE TREATMENT AND PREVENTION OF CANCER” (Industrial Technologies & Biotechnologies, priority 2019, published 2022)
